Results reported in US5334595A, “Pyrazoloquinolones as anticancer agents” (priority 1992, dated 1994).
Like-named read-outs stand apart in the source and are kept apart here.

Key:
human topoisomerase II = molecular target: T1, human topoisomerase II (Homo sapiens, UniProt P11388); test: Mammalian topoisomerase II inhibition assay (topo II covalently attached to DNA, relative to mAMSA); type: biochemical; settings: read-out: topo II inh. EC50
T1 construct: Topo II was purified from late log phase suspension cultures of HeLa WIS; endogenous in cells; host or cells: HeLa WIS
Excerpt: The inhibition of human topoisomerase II (hereafter topo II) was quantitated by a procedure adapted from that described by Trask et al., EMBO J., 3, 671-676 (1984). The assay quantitates the amount of topo II covalently attached to DNA at equilibrium during a topo II reaction. This assay determines the potential of a compound to stabilize this complex, which potential is closely related to the cytotoxicity of the compound.
Topo II was purified from late log phase suspension cultures of HeLa WIS by an adaptation of the method described by Per et al., Mol. Pharmacol., 32, 17-25 (1987).
Assays (in duplicate) were assembled at 4° C. Assay mix (25 μl) was distributed in Beckman (No. 265270) 1.5 mL microtiter tubes followed by the addition of 5 μl test compound to yield the final concentrations of assay components:
The assay mix including the test compound was incubated for 20 minutes at 37° C. The reaction was terminated at 37° C. by the addition of 3 μl 10% SDS followed by the addition of 266 μl 10 mM Tris-Cl pH 7.5, 20 μg/ml BSA, 20 μg/ml calf thymus DNA, 1% SDS.
A SDS/protein precipitate was formed by the addition of 28 μl 2.5M KCl followed by chilling on ice for a minimum of 10 minutes. The precipitate was collected and washed with a Brandell cell harvester on a GFB glass fiber filter membrane as follows. The contents of the assay tube were drawn up into the harvester. The tube was then rinsed 7× with 10 mM Tris-Cl pH 7.5, 1 mM EDTA and 100 mM KCl. The precipitate was washed with 1 L of a solution of 10 mM Tris-Cl pH 7.5, 1 mMEDTA, 100 mM KCl followed by 1 L of 95% ethyl alcohol and finally 0.5 L 70% of ethyl alcohol (per 48 samples in each case). After drying, CPM was determined by liquid scintillation counting with 5 ml Biofluor (NEN Research Products) or Readisafe (Beckman Instruments Inc.) cocktail.
Preparation of test compound--A stock solution (6 mg/ml) of test compound was prepared either in 0.1N sodium hydroxide or 0.2N hydrogen chloride. This solution then was diluted 1/5 into water and serially thereafter in either 0.02N sodium hydroxide or 0.04N hydrogen chloride, respectively. The stock solution and serial dilution of the test compound was stored at -20° C. prior to testing.
Screening of test compound--As an initial screen, the test compound was tested at a final concentration of 2, 20 and 200 μg/ml. The compound was then retested at a range of concentrations (usually 2-3×steps) bridging their approximate EC50 's, as estimated by the prescreen.
Controls--A solvent control which indicates the base level of topo II-DNA complex formed in the absence of the test compound was included in each test. A control, in which topo II was omitted, was included for each test compound at the highest drug concentration tested.
Reference Agent--A dose response curve with mAMSA at 0.01, 0.08, 0.16, 0.32, 1.0 and 10 μg/ml was included in each test.
The maximal DNA-topo II complex formed is taken as that equal to that formed at the nearly saturating dose of mAMSA (10 μg/ml).

[1] = system: P388 murine leukemia cells; test: In vitro cytotoxicity, one-hour exposure, clonogenic survival of P388 cells; type: cell-based; settings: Mus musculus, read-out: in vitro cytotoxicity IC50, 1 hr exp.; P388, 1 hr exposure
Experimental: (§1) In vitro cytotoxicity was assayed by determining cell survival following exposure of P388 murine leukemia cells to a range of test compound concentrations. Cytotoxicity was quantitated following either a one-hour exposure or continuous exposure of P388 cells to test compound.
(§2) A Manual of Basic Technique. […] Briefly, following drug exposure cells were plated in soft agar and incubated (37°, 5% CO2) for 7-10 days during which time viable cells form visible colonies. Cytotoxicity following continuous exposure of cells to test compound was assayed by quantitating total P388 cells on a Coultier Counter following a 48-hour co-incubation of test compound with cells. P388 cells were maintained in log phase throughout the duration of cytotoxicity assays.
(§3) The percentage of cells surviving relative to an untreated control was graphed as a function of increasing drug concentration.

[2] = system: P388 murine leukemia cells; test: In vitro cytotoxicity, continuous (48-hour) exposure of P388 cells; type: cell-based; settings: Mus musculus; P388, continuous exposure (48-hour); read-out: in vitro cytotoxicity IC50, cont. exp.
Experimental: as §1, §2, §3

[3] = In vivo antitumor assay, Panc03(sc); design: species or system mice; settings: mouse, in vivo, MTD
Excerpt: Mice: Inbred: C3H/He and NCR-nu; and Hybrids: B6D2F1 (C57BL/6 females×DBA/2 males, CD2F1 (Balb/c females×DBS/2 males) and B6C3fl (C57BL/6×C3H) were bred at Wayne State University from strains obtained from the Frederick Cancer Research Facility, Frederick, Maryland or purchased from commercial suppliers.
Tumors: Murine Tumor: P388 and an adriamycin-resistant (ADR) subline P388/ADR leukemia and the following transplantable solid tumors of mice were used for in vivo testing: B16 melanoma (B16), pancreatic ductal adenocarcinoma No. 03 (Pane 03), colon adenocarcinoma No. 38 (colo 38), lung carcinoma No. 12 (LC 12), mammary ductal adenocarcinoma No. 16/C (Mam16C) and an adriamycin-resistant subline Mam16C/ADR. Human tumor: A single human tumor, mammary carcinoma MX-1 was used for in vivo testing. All tumors are in the Developmental Therapeutics Program frozen tumor respository, maintained by the Biological Testing Branch, Frederick Maryland. Each has a detailed description, code identification number, and list of references at the National Tumor Repository. Murine tumors were maintained in the mouse strain of origin and were transplanted in the appropriate F1 hydrid (or the strain of origin) for therapy trials. Human mammary carcinoma MX-1 (MX1) was maintained as a subcutaneous implant in either athymic Swiss (Cr: NIH(S)-nu) or athymic random bred (NCR-nu) mice and transplanted in NCR-nu for therapy trials.
Chemotherapy: For pancreatic ductal adenocarcinoma No. 3, colon adenocarcinoma No. 38 (colo 38), lung carcinoma No. 12 LC 12) and both adriamycin-sensitive (RP) and-resistant (ADR) mammary ductal adenocarcinoma No. 16 (Mam16) tumors, bilateral tumor implants were used to help ensure a more uniform tumor burden per mouse (thus reducing the requirement for greater numbers of mice per group). The animals necessary to begin an experiment were pooled, implanted bilaterally s.c. on day zero with 30-60 mg tumor fragments using a 12-gauge trocar, and again pooled before randomization to the various treatment and control groups. Chemotherapy was started within three days after tumor implantation while the number of cells per mouse was relatively small (1×10^7 -1×10^8 cells).
Quantitative end points used to assess antitumor activity included % Increased Life Span (% ILS), Tumor Cell Kill (Log10 kill), and Tumor Growth Inhibition (T/C). Long Term Survivors (45 or 60 day) were excluded from calculations of %ILS and Tumor Cell Kill.
The log10 cell kill was calculated from the following formula: [formula] where T-C is the tumor difference in the median day of death between the treated (T) and the control (C) groups and Td is the tumor doubling time (in days), the latter estimated from the best fit straight line from a log-linear growth plot of the control-group tumors in exponential growth. The conversion of the T-C values to log10 cell kill is possible because the Td for tumors regrowing post-treatment approximated the Td values of the tumors in untreated control mice.
Tumors were measured with a caliper once or twice weekly (as needed) until either tumors exceeded 1600 mg or cure was assured. Tumor weights were estimated from two-dimensional measurements: Tumor Weight (mg)=(a×b^2) / 2, where a and b are the tumor length and width (ram) respectively. Measurements were carried out simultaneously in both treatment and control groups. When the control group tumors reached approximately 750-1500 mg in size (median of group), the median tumor weight of each group was determined (including zeros). The T/C value in percent is an indication of antitumor effectiveness. The % T/C was calculated from the following formula for solid murine tumor models: [formula] where T and C are median tumor weights of the treatment and control groups, respectively. A T/C equal to or less than 42% is considered significant antitumor activity. […]

[4] = conc. achieving 50% of maximal effect of mAMSA, topo II from HeLa cells

T1 sequence (P11388 whole entry): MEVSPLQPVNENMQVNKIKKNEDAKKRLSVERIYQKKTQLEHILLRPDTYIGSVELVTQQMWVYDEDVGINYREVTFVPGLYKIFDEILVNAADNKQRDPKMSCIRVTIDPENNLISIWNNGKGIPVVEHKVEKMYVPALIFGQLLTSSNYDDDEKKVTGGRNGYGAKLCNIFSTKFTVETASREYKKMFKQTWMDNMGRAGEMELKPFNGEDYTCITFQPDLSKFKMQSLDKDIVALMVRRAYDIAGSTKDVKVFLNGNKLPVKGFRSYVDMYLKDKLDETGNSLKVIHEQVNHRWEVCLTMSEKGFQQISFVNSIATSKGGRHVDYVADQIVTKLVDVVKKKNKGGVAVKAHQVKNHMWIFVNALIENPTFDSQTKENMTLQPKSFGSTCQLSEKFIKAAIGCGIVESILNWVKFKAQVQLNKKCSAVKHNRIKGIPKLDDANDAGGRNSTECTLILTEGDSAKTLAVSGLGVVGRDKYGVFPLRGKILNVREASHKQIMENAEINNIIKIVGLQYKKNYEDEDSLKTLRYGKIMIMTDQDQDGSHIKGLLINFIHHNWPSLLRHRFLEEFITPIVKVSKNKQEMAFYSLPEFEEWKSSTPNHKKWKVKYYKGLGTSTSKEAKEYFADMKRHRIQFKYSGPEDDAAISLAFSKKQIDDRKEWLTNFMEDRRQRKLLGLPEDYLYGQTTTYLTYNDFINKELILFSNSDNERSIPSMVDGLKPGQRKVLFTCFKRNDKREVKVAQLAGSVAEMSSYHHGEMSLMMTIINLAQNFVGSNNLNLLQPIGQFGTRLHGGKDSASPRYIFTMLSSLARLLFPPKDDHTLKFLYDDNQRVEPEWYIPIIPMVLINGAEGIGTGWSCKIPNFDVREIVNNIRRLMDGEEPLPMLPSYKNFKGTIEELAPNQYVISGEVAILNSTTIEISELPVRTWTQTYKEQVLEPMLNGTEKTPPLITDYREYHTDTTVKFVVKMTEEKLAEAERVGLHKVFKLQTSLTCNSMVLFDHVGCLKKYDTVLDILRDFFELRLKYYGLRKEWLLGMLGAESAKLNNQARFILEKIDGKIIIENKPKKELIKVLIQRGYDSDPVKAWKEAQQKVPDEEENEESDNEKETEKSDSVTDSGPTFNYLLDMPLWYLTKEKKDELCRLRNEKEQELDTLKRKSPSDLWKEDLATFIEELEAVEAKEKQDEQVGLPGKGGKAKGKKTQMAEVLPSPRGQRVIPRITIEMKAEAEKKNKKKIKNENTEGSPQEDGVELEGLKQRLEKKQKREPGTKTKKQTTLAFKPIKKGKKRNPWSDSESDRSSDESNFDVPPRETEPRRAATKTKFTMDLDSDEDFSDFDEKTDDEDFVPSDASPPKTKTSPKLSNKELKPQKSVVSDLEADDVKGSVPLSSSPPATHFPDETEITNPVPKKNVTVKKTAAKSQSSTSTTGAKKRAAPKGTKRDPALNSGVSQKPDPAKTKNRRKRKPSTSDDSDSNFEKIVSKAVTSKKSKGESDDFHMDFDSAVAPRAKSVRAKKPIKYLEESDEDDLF

| EC50 (human topoisomerase II; [4]) [nM] | EC50 (human topoisomerase II) [nM] | Structure (SMILES) | IC50 [1] [nM] | IC50 [2] [nM] | MTD ([3]; sc) [mg/kg] | MTD ([3]; iv) [mg/kg] | EC50 (human topoisomerase II; footnote c: bell-shaped dose response curve noted, 50% of maximal effect of mAMSA) [nM] | MTD [3] [mg/kg] |
| --- | --- | --- | --- | --- | --- | --- | --- | --- |
| 6000 | – | CCN(CC)CCCn1nc2c3cc(F)c(-c4cc(C)nc(C)c4)c(F)c3n(C3CC3)cc-2c1=O [Example 16] | 490 | 1200 | – | – | – | – |
| – | 650000 | Cc1cc(-c2c(F)cc3c4nn(CCN5CCCC5)c(=O)c-4cn(C4CC4)c3c2F)cc(C)n1 [Example 18] | 300 | 35 | – | – | – | – |
| 900 | – | Cc1cc(-c2c(F)cc3c4nn(C5CCCCC5)c(=O)c-4cn(C4CC4)c3c2F)cc(C)n1 [Example 40] | 680 | 190 | – | – | – | – |
| 2900 | – | Cc1cc(-c2c(F)cc3c4nn(C5CCCCCC5)c(=O)c-4cn(C4CC4)c3c2F)cc(C)n1 [Example 42] | 4200 | 1500 | – | – | – | – |
| 8200 | – | Cc1cc(-c2c(F)cc3c4nn(CC5CCCCC5)c(=O)c-4cn(C4CC4)c3c2F)cc(C)n1 [Example 43] | 6700 | 4900 | – | – | – | – |
| 1700 | – | Cc1cc(-c2c(F)cc3c4nn(C5CCOCC5)c(=O)c-4cn(C4CC4)c3c2F)cc(C)n1 [Example 46] | 290 | 250 | – | – | – | – |
| 5600 | – | Cc1cc(-c2c(F)cc3c4nn(C5CCNCC5)c(=O)c-4cn(C4CC4)c3c2F)cc(C)n1 [Example 49] | 2300 | 2500 | – | – | – | – |
| 11000 | – | Cc1cc(-c2c(F)cc3c4nn(CCNC(C)(CO)CO)c(=O)c-4cn(C4CC4)c3c2F)cc(C)n1 [Example 55] | 11000 | 25000 | – | – | – | – |
| 1500 | – | Cc1cc(-c2c(F)cc3c4nn([C@H]5CC[C@H](NC=O)CC5)c(=O)c-4cn(C4CC4)c3c2F)cc(C)n1 [Example 58, 2-(trans-4-formamidocyclohexyl)-5-cyclopropyl-6,8-difluoro-2,5-dihydro-7-(2,6-dimethyl-4-pyridinyl)-3H-pyrazolo[4,3-c]quinolin-3-one] | 9100 | – | – | – | – | – |

Continued, compound first:

| Structure (SMILES) | EC50 (human topoisomerase II; [4]) [nM] | EC50 (human topoisomerase II) [nM] | IC50 [1] [nM] | IC50 [2] [nM] | MTD ([3]; sc) [mg/kg] | MTD ([3]; iv) [mg/kg] | EC50 (human topoisomerase II; footnote c: bell-shaped dose response curve noted, 50% of maximal effect of mAMSA) [nM] | MTD [3] [mg/kg] |
| --- | --- | --- | --- | --- | --- | --- | --- | --- |
| Cc1cc(-c2c(F)cc3c4n[nH]c(=O)c-4cn(C4CC4)c3c2F)cc(C)n1 [Example 6] | 11000 | – | 7900 | 3600 | > 2500 | – | – | – |
| Cc1cc(-c2c(F)cc3c4nn(CCN5CCOCC5)c(=O)c-4cn(C4CC4)c3c2F)cc(C)n1 [Example 20] | 48000 | – | 2800 | 410 | – | – | – | – |
| Cc1cc(-c2c(F)cc3c4nn(CCC5CCCN5C)c(=O)c-4cn(C4CC4)c3c2F)cc(C)n1 (centres unmarked) [Example 21] | 3500 | – | 330 | 160 | – | 80 | – | – |
| Cc1cc(-c2c(F)cc3c4nn(-c5ccccc5)c(=O)c-4cn(C4CC4)c3c2F)cc(C)n1 [Example 22] | 2700 | – | – | 840 | 635 | – | – | – |
| COc1ccc(-n2nc3c4cc(F)c(-c5cc(C)nc(C)c5)c(F)c4n(C4CC4)cc-3c2=O)cc1 [Example 23] | – | – | – | 5200 | 1150 | 140 | 6800 | – |
| Cc1cc(-c2c(F)cc3c4nn(C5CCCC5)c(=O)c-4cn(C4CC4)c3c2F)cc(C)n1 [Example 41] | 4000 | – | 1100 | 380 | – | – | – | – |
| Cc1cc(-c2c(F)cc3c4nn(C5CCN(C)CC5)c(=O)c-4cn(C4CC4)c3c2F)cc(C)n1 [Example 50] | 3200 | – | 94 | – | – | 128 | – | – |
| Cc1cc(-c2c(F)cc3c4nn(CCCCN(C)C)c(=O)c-4cn(C4CC4)c3c2F)cc(C)n1 [Example 54, 5-Cyclopropyl-6,8-difluoro-2,5-dihydro-2-[4-(dimethylamino)-butyl]-7-(2,6-dimethyl-4-pyridinyl) -3H-pyrazolo[4,3-c]quinolin-3-one] | 15000 | – | 400 | 500 | – | – | – | – |
| Cc1cc(-c2c(F)cc3c4nn([C@H]5CC[C@H](N)CC5)c(=O)c-4cn(C4CC4)c3c2F)cc(C)n1 [Example 56b, 2-(trans-4-aminocyclohexyl)-5-cyclopropyl-6,8-difluoro-2,5 dihydro-7-(2,6-dimethyl-4-pyridinyl)-3H-pyrazolo[4,3-c]quinolin-3-one] | 4200 | – | 1500 | – | – | – | – | 550 |
